Results taken from US12065404B2, “C4-carboxylic acid-substituted tryptamine derivatives and methods of using” (priority 2022, dated 2024).
Where “and” joins values, the source holds several entries; their conditions need not be identical. Equal entries are not always repeated. Entries after “also recorded” stand apart in the source; their conditions may differ.

What was measured:
5-HT1A receptor = target: T1, 5-HT1A receptor (Homo sapiens, UniProt P08908); experiment: cAMP-Glo assay of 5-HT1A receptor modulation, +5-HT1A (CHO-K1/5-HT1A/Ga15) vs -5-HT1A (CHO-K1/Ga15) cells; assay type: cell-based; set-up: dose or concentration left out as unconfirmed; conditions: +5-HT1A vs -5-HT1A cell cultures stimulated with forskolin, increasing ligand concentrations
T1 construct: host or cells: CHO-K1 (co-expressing Ga15)
T1 sequence (P08908 1-422): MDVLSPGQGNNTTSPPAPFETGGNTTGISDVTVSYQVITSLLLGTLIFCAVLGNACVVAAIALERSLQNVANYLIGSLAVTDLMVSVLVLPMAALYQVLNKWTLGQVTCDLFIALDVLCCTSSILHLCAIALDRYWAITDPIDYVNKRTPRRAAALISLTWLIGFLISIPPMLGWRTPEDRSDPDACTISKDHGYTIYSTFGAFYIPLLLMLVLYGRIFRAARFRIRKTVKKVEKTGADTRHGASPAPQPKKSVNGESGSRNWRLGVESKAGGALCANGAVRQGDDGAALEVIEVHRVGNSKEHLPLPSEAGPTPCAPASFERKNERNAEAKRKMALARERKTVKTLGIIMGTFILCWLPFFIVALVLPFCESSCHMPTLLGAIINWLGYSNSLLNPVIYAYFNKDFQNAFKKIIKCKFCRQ

[1] = target: T2, neuronal 5-HT2A receptor (5-HT2AR) (Mus musculus, UniProt P35363); experiment: Drug-induced Head Twitch Response (HTR) in mice; assay type: in vivo, C57BL/6-Elite mice; conditions: 1 mg/kg i.p., 15-to-30-minute window post-drug, relative to vehicle-treated control mice
T2 construct: HTR was measured in mice treated with a control and test compounds; tissue Charles River; host or cells: live C57BL/6-Elite mice (neuronal receptor)

GABAA = GABAA (Homo sapiens, UniProt P14867+P18507+P47870); assay type: cell-based; conditions: ion channel
[2] = Mouse pharmacokinetic (PK) study, parent compound and psilocin metabolite in plasma; assay type: in vivo, C57Bl/6 mice; conditions: for F(%) / F(%), M37 considered as an outlier / bioavailability: AUC0-tlast used for p.o. group; for F(%), M37 considered as an outlier: i.v. animal M37 considered an outlier; for bioavailability: male, C57Bl/6, mouse, plasma, po
Excerpt: Briefly, the procedure was as follows. […] 19, 2022.

[3] = 1 mg/kg i.v. C(I), 6 h, individual animals
[4] = 1 mg/kg i.v. C(I), 8 h, individual animals
[5] = 1 mg/kg oral C(I), 8 h, individual animals
[6] = 1 mg/kg oral C(I), 24 h, individual animals
[7] = 3 mg/kg oral C(I), 24 h, individual animals
[8] = 10 mg/kg oral C(I), 24 h, individual animals
[9] = 10 mg/kg oral, individual animals
[10] = administered compound itself in plasma, 1 mg/kg i.v., individual animals, 1 mg/kg
[11] = administered compound itself in plasma, 1 mg/kg i.v., mean ± SD
[12] = administered compound itself in plasma, 1 mg/kg oral, individual animals, 1 mg/kg
[13] = administered compound itself in plasma, 1 mg/kg oral, mean ± SD, 1 mg/kg
[14] = administered compound itself in plasma, 3 mg/kg oral, individual animals, 3 mg/kg
[15] = administered compound itself in plasma, 3 mg/kg oral, mean ± SD
[16] = administered compound itself in plasma, 3 mg/kg oral, mean ± SD, 3 mg/kg
[17] = administered compound itself in plasma, 10 mg/kg oral, individual animals, 10 mg/kg
[18] = administered compound itself in plasma, 10 mg/kg oral, mean ± SD

Chain of GABAA (P14867 28-456): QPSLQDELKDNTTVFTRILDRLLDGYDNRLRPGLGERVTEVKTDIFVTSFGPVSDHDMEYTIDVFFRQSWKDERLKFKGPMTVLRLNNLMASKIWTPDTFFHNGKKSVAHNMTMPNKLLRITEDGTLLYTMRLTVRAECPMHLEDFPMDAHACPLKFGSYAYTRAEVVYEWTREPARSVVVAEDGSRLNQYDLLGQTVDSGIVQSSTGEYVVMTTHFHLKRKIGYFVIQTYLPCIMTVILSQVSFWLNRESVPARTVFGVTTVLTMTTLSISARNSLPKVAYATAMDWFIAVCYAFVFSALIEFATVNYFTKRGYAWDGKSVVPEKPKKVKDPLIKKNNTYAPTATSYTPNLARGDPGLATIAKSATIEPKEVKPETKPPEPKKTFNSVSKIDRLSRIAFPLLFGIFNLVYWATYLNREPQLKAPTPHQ
Chain of GABAA (P47870 26-512): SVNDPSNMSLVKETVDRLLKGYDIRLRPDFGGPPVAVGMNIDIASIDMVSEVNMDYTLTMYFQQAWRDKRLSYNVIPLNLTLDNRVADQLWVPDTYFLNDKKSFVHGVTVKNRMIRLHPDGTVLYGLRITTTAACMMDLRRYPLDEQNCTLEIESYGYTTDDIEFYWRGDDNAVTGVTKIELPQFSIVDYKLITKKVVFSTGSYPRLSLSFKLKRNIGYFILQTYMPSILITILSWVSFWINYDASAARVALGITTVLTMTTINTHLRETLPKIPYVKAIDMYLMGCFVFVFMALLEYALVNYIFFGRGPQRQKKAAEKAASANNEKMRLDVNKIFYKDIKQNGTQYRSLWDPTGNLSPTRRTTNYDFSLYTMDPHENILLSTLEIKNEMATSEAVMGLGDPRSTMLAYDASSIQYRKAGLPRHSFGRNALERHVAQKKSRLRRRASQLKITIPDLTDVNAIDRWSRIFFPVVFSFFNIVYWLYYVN
Chain of GABAA (P18507 40-475): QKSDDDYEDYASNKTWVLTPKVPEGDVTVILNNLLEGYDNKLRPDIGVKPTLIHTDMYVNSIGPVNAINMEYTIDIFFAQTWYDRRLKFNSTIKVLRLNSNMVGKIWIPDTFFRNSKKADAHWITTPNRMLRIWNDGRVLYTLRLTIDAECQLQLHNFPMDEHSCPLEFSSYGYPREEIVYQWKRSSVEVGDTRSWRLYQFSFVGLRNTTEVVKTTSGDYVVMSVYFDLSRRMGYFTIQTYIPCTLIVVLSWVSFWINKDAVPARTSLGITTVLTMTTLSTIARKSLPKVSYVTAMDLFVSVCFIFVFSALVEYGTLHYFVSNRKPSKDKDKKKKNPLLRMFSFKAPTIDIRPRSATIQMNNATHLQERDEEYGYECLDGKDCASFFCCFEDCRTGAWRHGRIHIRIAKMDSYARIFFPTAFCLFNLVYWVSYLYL
T2 sequence (P35363 whole entry): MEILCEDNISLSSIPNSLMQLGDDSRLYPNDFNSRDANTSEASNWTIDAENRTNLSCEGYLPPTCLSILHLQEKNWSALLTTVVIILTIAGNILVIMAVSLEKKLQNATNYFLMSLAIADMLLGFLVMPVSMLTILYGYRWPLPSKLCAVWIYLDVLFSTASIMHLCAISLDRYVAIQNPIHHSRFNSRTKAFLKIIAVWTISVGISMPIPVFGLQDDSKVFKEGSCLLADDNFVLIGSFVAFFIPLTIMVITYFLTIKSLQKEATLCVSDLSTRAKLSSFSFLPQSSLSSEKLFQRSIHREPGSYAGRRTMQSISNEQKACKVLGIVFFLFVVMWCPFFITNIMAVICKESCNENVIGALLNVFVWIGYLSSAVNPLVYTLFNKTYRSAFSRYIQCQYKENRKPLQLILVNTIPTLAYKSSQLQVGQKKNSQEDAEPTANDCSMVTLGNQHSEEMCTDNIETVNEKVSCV

## CN(C)CCc1c[nH]c2cccc(OC(=O)c3ccc(Br)cc3)c12 [C(I)]
5-HT1A receptor
  5-HT1A receptor modulation (reduction of cAMP levels): mild receptor modulation at higher ligand concentrations
[1]
  Incidences of Head Twitch Response (HTR): Elevated incidences of HTR
GABAA; blocker (BL)
  IC50: > 100 µM
GABAA; opener (OP)
  EC50: > 100 µM
[2]; 1 mg/kg i.v. C(I), 5 min, individual animals
  Plasma concentration of C(I): 2620 ng/mL and 118 ng/mL and 94.4 ng/mL
[2]; 1 mg/kg i.v. C(I), 0.25 h, individual animals
  Plasma concentration of C(I): 1250 ng/mL and 58.5 ng/mL and 48.2 ng/mL
[2]; 1 mg/kg i.v. C(I), 0.5 h, individual animals
  Plasma concentration of C(I): 348 ng/mL and 33.4 ng/mL and 30.4 ng/mL
[2]; 1 mg/kg i.v. C(I), 1 h, individual animals
  Plasma concentration of C(I): 128 ng/mL and 17.9 ng/mL and 13.8 ng/mL
[2]; 1 mg/kg i.v. C(I), 2 h, individual animals
  Plasma concentration of C(I): 52.8 ng/mL and 3.61 ng/mL and 3.40 ng/mL
[2]; 1 mg/kg i.v. C(I), 4 h, individual animals
  Plasma concentration of C(I): 8.88 ng/mL and 0.984 ng/mL and 0.509 ng/mL
[2]; [3]
  Plasma concentration of C(I): 4.65 ng/mL and 0.363 ng/mL and BLQ (BLQ denotes below the lower limit of quantitation (0.5 ng/mL).)
  Plasma concentration of psilocin: BLQ (BLQ denotes below the lower limit of quantitation (0.2 ng/ml).)
[2]; [4]
  Plasma concentration of C(I): BLQ (BLQ denotes below the lower limit of quantitation (0.5 ng/mL).); also recorded: No Peak
  Plasma concentration of psilocin: BLQ (BLQ denotes below the lower limit of quantitation (0.2 ng/ml).)
[2]; 1 mg/kg oral C(I), 0.25 h, individual animals
  Plasma concentration of C(I): 0.617 ng/mL and 0.410 ng/mL and 0.910 ng/mL
[2]; 1 mg/kg oral C(I), 0.5 h, individual animals
  Plasma concentration of C(I): 0.816 ng/mL and 0.535 ng/mL and 1.28 ng/mL
[2]; 1 mg/kg oral C(I), 1 h, individual animals
  Plasma concentration of C(I): BLQ (BLQ denotes below the lower limit of quantitation (0.5 ng/mL).) and 1.02 ng/mL
[2]; 1 mg/kg oral C(I), 2 h, individual animals
  Plasma concentration of C(I): BLQ (BLQ denotes below the lower limit of quantitation (0.5 ng/mL).) and 0.600 ng/mL
[2]; 1 mg/kg oral C(I), 4 h, individual animals
  Plasma concentration of C(I): BLQ (BLQ denotes below the lower limit of quantitation (0.5 ng/mL).)
[2]; 1 mg/kg oral C(I), 6 h, individual animals
  Plasma concentration of C(I): BLQ (BLQ denotes below the lower limit of quantitation (0.5 ng/mL).)
[2]; [5]
  Plasma concentration of C(I): BLQ (BLQ denotes below the lower limit of quantitation (0.5 ng/mL).)
  Plasma concentration of psilocin: BLQ (BLQ denotes below the lower limit of quantitation (0.2 ng/ml).)
[2]; [6]
  Plasma concentration of C(I): No Peak and No (2×)
  Plasma concentration of psilocin: No Peak; also recorded: BLQ (BLQ denotes below the lower limit of quantitation (0.2 ng/ml).)
[2]; 1 mg/kg oral, value might be under-estimated, individual animals
  F(%): 0.554% and 0.0450% and 0.465%
[2]; 1 mg/kg oral, individual animals
  F(%), M37 considered as an outlier: 3.59% and 0.291% and 3.01%
[2]; 1 mg/kg oral, mean ± SD
  F(%), M37 considered as an outlier: 2.30 ± 1.76% and 2.30%
[2]; 3 mg/kg oral C(I), 0.25 h, individual animals
  Plasma concentration of C(I): 2.13 ng/mL and 2.34 ng/mL
[2]; 3 mg/kg oral C(I), 0.5 h, individual animals
  Plasma concentration of C(I): 2.16 ng/mL and 1.99 ng/mL
[2]; 3 mg/kg oral C(I), 1 h, individual animals
  Plasma concentration of C(I): 1.56 ng/mL and 1.33 ng/mL
[2]; 3 mg/kg oral C(I), 2 h, individual animals
  Plasma concentration of C(I): 0.705 ng/mL and 0.720 ng/mL
[2]; 3 mg/kg oral C(I), 4 h, individual animals
  Plasma concentration of C(I): 0.569 ng/mL and 0.873 ng/mL and 1.28 ng/mL
[2]; 3 mg/kg oral C(I), 6 h, individual animals
  Plasma concentration of C(I): 0.310 ng/mL and 0.250 ng/mL
[2]; 3 mg/kg oral C(I), 8 h, individual animals
  Plasma concentration of C(I): BLQ (BLQ denotes below the lower limit of quantitation (0.5 ng/mL).)
[2]; [7]
  Plasma concentration of C(I): No Peak
  Plasma concentration of psilocin: No Peak
[2]; 3 mg/kg oral, value might be under-estimated, individual animals
  F(%): 0.484% and 0.523%
[2]; 3 mg/kg oral, individual animals
  F(%), M37 considered as an outlier: 3.02% and 3.13% and 3.39%
[2]; 3 mg/kg oral, mean ± SD
  F(%), M37 considered as an outlier: 3.18 ± 0.189% and 3.18%
[2]; 10 mg/kg oral C(I), 0.25 h, individual animals
  Plasma concentration of C(I): 3.73 ng/mL and 6.07 ng/mL
[2]; 10 mg/kg oral C(I), 0.5 h, individual animals
  Plasma concentration of C(I): 7.10 ng/mL and 10.9 ng/mL
[2]; 10 mg/kg oral C(I), 1 h, individual animals
  Plasma concentration of C(I): 5.29 ng/mL and 7.46 ng/mL
[2]; 10 mg/kg oral C(I), 2 h, individual animals
  Plasma concentration of C(I): 2.51 ng/mL and 1.47 ng/mL and 3.80 ng/mL
[2]; 10 mg/kg oral C(I), 4 h, individual animals
  Plasma concentration of C(I): 2.06 ng/mL and 3.01 ng/mL
[2]; 10 mg/kg oral C(I), 6 h, individual animals
  Plasma concentration of C(I): 1.18 ng/mL and 0.661 ng/mL
[2]; 10 mg/kg oral C(I), 8 h, individual animals
  Plasma concentration of C(I): 0.253 ng/mL and 1.10 ng/mL and 0.283 ng/mL
[2]; [8]
  Plasma concentration of C(I): No (2×) and No Peak
  Plasma concentration of psilocin: BLQ (BLQ denotes below the lower limit of quantitation (0.2 ng/ml).)
[2]; [9]
  F(%), M37 considered as an outlier: 2.71% and 2.90% and 4.06%
  F(%): 0.447% and 0.627%
[2]; 10 mg/kg oral, mean ± SD
  F(%), M37 considered as an outlier: 3.22 ± 0.731%
[2]; [10]
  AUC0-inf: 1014 ng·h/mL and 64.4 ng·h/mL and 51.9 ng·h/mL
  AUC0-inf/Dose: 1014 kg·ng·h/mL/mg and 64.4 kg·ng·h/mL/mg and 51.9 kg·ng·h/mL/mg
  AUC0-tlast: 1006 ng·h/mL and 63.7 ng·h/mL and 51.4 ng·h/mL
  AUC0-tlast/Dose: 1006 kg·ng·h/mL/mg and 63.7 kg·ng·h/mL/mg and 51.4 kg·ng·h/mL/mg
  Apparent t1/2: 72.6 min and 38.6 min
  C0: 3792 ng/mL and 168 ng/mL and 132 ng/mL
  CL: 16.4 mL/min/kg and 258.9 mL/min/kg and 321.08 mL/min/kg
  MRT0-inf: 46.8 min and 39.4 min
  Vss: 0.56 L/kg and 12.109 L/kg and 12.65 L/kg
[2]; [11]
  AUC0-inf/Dose: 377 ± 552 kg·ng·h/mL/mg
  AUC0-tlast/Dose: 374 ± 548 kg·ng·h/mL/mg
  MRT0-inf: 40.1 ± 6.36 min
[2]; administered compound itself in plasma, 1 mg/kg i.v., mean, n = 2 (apparently without possible outlier M37)
  AUC0-tlast/Dose: 57.6 kg·ng·h/mL/mg
[2]; [12]
  AUC0-tlast: 2.09 ng·h/mL and 0.169 ng·h/mL and 1.75 ng·h/mL
  AUC0-tlast/Dose: 2.09 kg·ng·h/mL/mg and 0.169 kg·ng·h/mL/mg and 1.75 kg·ng·h/mL/mg
  Cmax: 0.816 ng/mL and 0.54 ng/mL and 1.28 ng/mL
  Cmax/Dose: 0.816 kg·ng/mL/mg and 0.54 kg·ng/mL/mg and 1.28 kg·ng/mL/mg
[2]; [13]
  AUC0-tlast/Dose: 1.34 ± 1.02 kg·ng·h/mL/mg and 1.34 kg·ng·h/mL/mg
  Cmax/Dose: 0.877 ± 0.376 kg·ng/mL/mg and 0.877 kg·ng/mL/mg
[2]; [14]
  AUC0-tlast: 5.47 ng·h/mL and 5.91 ng·h/mL
  AUC0-tlast/Dose: 1.75 kg·ng·h/mL/mg and 1.82 kg·ng·h/mL/mg and 1.97 kg·ng·h/mL/mg
  Cmax: 2.16 ng/mL and 2.34 ng/mL
  Cmax/Dose: 0.650 kg·ng/mL/mg and 0.720 kg·ng/mL/mg and 0.780 kg·ng/mL/mg
  tmax: 15 min
[2]; [15]
  AUC0-tlast: 5.54 ± 0.330 ng·h/mL
  Cmax: 2.15 ± 0.195 ng/mL
[2]; [16]
  AUC0-tlast/Dose: 1.85 ± 0.110 kg·ng·h/mL/mg and 1.85 kg·ng·h/mL/mg
  Cmax/Dose: 0.717 ± 0.0651 kg·ng/mL/mg and 0.717 kg·ng/mL/mg
[2]; [17]
  AUC0-inf: 24.1 ng·h/mL
  AUC0-tlast: 16.8 ng·h/mL and 23.6 ng·h/mL
  AUC0-tlast/Dose: 1.58 kg·ng·h/mL/mg and 1.68 kg·ng·h/mL/mg and 2.36 kg·ng·h/mL/mg
  Apparent t1/2: 70.2 min
  Cmax: 7.10 ng/mL and 10.9 ng/mL
  Cmax/Dose: 0.720 kg·ng/mL/mg and 0.710 kg·ng/mL/mg and 1.09 kg·ng/mL/mg
  MRT0-inf: 144 min
  tmax: 30 min
[2]; [18]
  AUC0-tlast/Dose: 1.87 ± 0.425 kg·ng·h/mL/mg
  Cmax/Dose: 0.840 ± 0.217 kg·ng/mL/mg
[2]; 1 mg/kg, 1 mg/kg oral, value might be under-estimated, mean ± SD
  bioavailability: 0.355 ± 0.272%
[2]; 3 mg/kg, 3 mg/kg oral, value might be under-estimated, individual animals
  bioavailability: 0.466%
[2]; 3 mg/kg, 3 mg/kg oral, value might be under-estimated, mean ± SD
  bioavailability: 0.491 ± 0.0292%
[2]; 10 mg/kg, 10 mg/kg oral, individual animals
  bioavailability: 0.419%
[2]; 10 mg/kg, 10 mg/kg oral, mean ± SD
  bioavailability: 0.498 ± 0.113%
